Test results taken from patent US5194611A, “Separation technique for a mixture of (6RS)-diastereoisomers of an ammonium salt of N^5 -methyl-5,6,7,8-tetrahydrofolic acid into single (6R) and (6S)-diastereoisomers” (Sapec S.A. fine chemicals, priority 1990, dated 1993).
Counter-ions that a name gives are not always drawn.

Tested on: human CCRF-CEM cells
Experiment: cells
Conditions: 72 h, read-out: % growth (72 hrs exp.)
Method: Inhibition of the growth of human CCRF-CEM cells
Human leukemia cells (CCRF-CEM) were grown during 72 hours in the presence of increasing concentration of (6R)-N^5 -methyl-THF.[…].

SMILES: CN1c2c(nc(N)[nH]c2=O)NC[C@H]1CNc1ccc(C(=O)N[C@@H](CCC(=O)O)C(=O)O)cc1 [(6R)-N^5 -Methyl-THF.Ca^2+, (6R)-N^5 -methyl-THF-calcium salt]
- activity at 1 µM: 95%
- activity at 10 µM: 99%
- activity at 30 µM: 10%
- activity at 100 µM: 9.3%
- activity at 250 µM: 8.2%
